Source: patent US20060083794A1, “Use of an extract from the plant argania spinosa” (priority 2002, published 2006)

Test system: 5-α-reductase
Assay: Metabolization of 14C testosterone to DHT in reconstructed epidermis (thin-layer chromatography, phosphoimager)
Assay type: cell-based, human
Settings: Finasterid 10 μM; control = 100
Description: • Epidermis SkinEthic (17 days, 0.63 cm^2) in culture, 37° C., 5% CO2 • Reference substance: Finasteride • Testosterone: [4-14-C]
The epidermis was precultivated for 24 hours on plates with 24 positions. The experiments with the products and the reference substance Finasterid (10 μm) were carried out three times (3 epidermises per experiment). After treatment for 24 hours, the media of the subepidermis were renewed and replaced by 300 μl of fresh culture medium. 100 μl of radioactively marked testosterone solution were applied to the upper surface (horny layer) of the epidermis (TO). After another 24 hours, the subepidermis medium was removed for analysis.
The steroids present in the culture medium were extracted for analysis of the metabolism and separated into their molecular derivatives by thin-layer chromatography (on silica gel). The quantity of transformed testosterone was determined by radioactive counting of the various spots using a phosphoimager.

With `CC(C)(C)NC(=O)[C@H]1CC[C@H]2[C@@H]3CC[C@H]4NC(=O)C=C[C@]4(C)[C@H]3CC[C@]12C` [Finasterid, Finasteride] as the compound, how does the “DHT formed in %” value read?
Its value is 8%.
